The molecules below were run on Cucumber (breed: Sagamihanjiro) (assay: Relief effects of salt injury on cucumber (Test Example 8)). Conditions: spray, 0.1% sodium chloride irrigation from 3 days, above ground raw weight at 20 days, ascorbyl palmitate 600 ppm, imidacloprid 50 ppm, pymetrozine 100 ppm, cyenopyrafen 150 ppm, pyraclostrobin 50 ppm, normal irrigation = 100.
Protocol: Cucumber (breed: Sagamihanjiro, 2 replications) hydroponically grown up to the 1.5 leaf stage in a greenhouse was prepared.
A water dispersible granule of 30% ascorbyl palmitate and a commercially available product containing the substance (B) described in Table 14 were diluted with tap water into a concentration described in Table 14, and the diluted solution was sprayed over the nursery plats in a sufficient amount. After air dried, they were cultivated in a greenhouse with normal irrigation. Irrigation was changed to 0.1% aqueous sodium chloride solution at the elapsed time of 3 days after the spraying, and cultivated. The raw weight of an above ground part was measured at the elapsed time of 20 days after the spraying. From this, injury relief percentages were computed by the following formula.

SMILES | relief percents of injury (%)
O=[N+]([O-])NC1=NCCN1Cc1ccc(Cl)nc1 [Imidacloprid] | 33%
Cc1nn(C)c(/C(OC(=O)C(C)(C)C)=C(\C#N)c2ccc(C(C)(C)C)cc2)c1C [cyenopyrafen] | 51%
CCCCCCCCCCCCCCCC(=O)OC[C@H](O)[C@H]1OC(=O)C(O)=C1O [ascorbyl palmitate] | 53%
CC1=NNC(=O)N(/N=C/c2cccnc2)C1 [Pymetrozine] | 53%
COC(=O)N(OC)c1ccccc1COc1ccn(-c2ccc(Cl)cc2)n1 [Pyraclostrobin] | 77%

These molecules were tested on Tomato (breed: Momotaro) (assay: Relief effects of high temperature injury on tomato (Test Example 3)). Conditions: spray, 40° C. daylight / 30° C. dark, 4 days, ascorbyl palmitate 600 ppm, thiophanate-methyl 467 ppm, boscalid 333 ppm, cyflufenamid 17 ppm + triflumizole 75 ppm.
Protocol: Tomato (breed: Momotaro, 2 replications) grown up to the 4 leaf stage in a greenhouse was prepared.
A water dispersible granule of 30% ascorbyl palmitate and a commercially available agent containing the substance (B) as described in Table 8 were diluted with tap water into a concentration described in Table 8, and the diluted solution was sprayed over the whole nursery plants in a sufficient amount. After air dried, they were allowed to grow under cycle conditions of 16 hours under a daylight condition at 40° C. and 8 hours under a dark condition at 30° C. The degree of disorders was investigated at an elapsed time of 4 days after the spraying.
The degree of necrosis due to high temperature was evaluated by 11 levels of disorder indices from 0 (no necrosis) to 10 (withering to death). From this, the injury relief percentages were computed by the following formula.

SMILES | relief percents of injury (%)
CCCCCCCCCCCCCCCC(=O)OC[C@H](O)[C@H]1OC(=O)C(O)=C1O [ascorbyl palmitate] | 40%
O=C(Nc1ccccc1-c1ccc(Cl)cc1)c1cccnc1Cl [Boscalid] | 40%
COC(=O)NC(=S)Nc1ccccc1NC(=S)NC(=O)OC [Thiophanate-methyl] | 40%

Reference: patent US9345243B2, “Chemicals composition for reducing stress on plant” (Nippon Soda Co., Ltd., priority 2012, dated 2016)
